Measurements from patent US9315475B2 (MERCK SHARP & DOHME CORP., priority 2011, dated 2016).
pEC50, pIC50: −log10 of the molar value.

Columns and labels:
wildtype HIV-1 protease = target: T1, wildtype HIV-1 protease (Human immunodeficiency virus type 1 group M subtype B, UniProt P04585); test: Assay for inhibition of microbial expressed HIV protease (Pepcleav); format: biochemical; settings: wild type HIV-1 protease expressed in E. coli, peptide substrate, pH 5.5; mean of at least two independent experiments; read-out: Pepcleav
T1 construct: the wildtype HIV-1 protease (which was expressed in Escherichia coli); made in house; host or cells: Escherichia coli
Procedure, shortened: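 Cleavage of 400 μM peptide substrate Val-Ser-Gln-Asn-(βnaphthyl)Ala-Pro-Ile-Val by 20 pM wild-type enzyme (E. coli-expressed) ran 1 h at 30 °C after 30 min inhibitor preincubation, pH 5.5 acetate buffer. Inhibition derived from product peak area by C18 LC with multiple-reaction-monitoring MS after formic acid quench.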

HIV-1 (H9IIIB strain) = test: Antiviral acute infection assay in cell culture (Spread); format: cell-based; settings: Human immunodeficiency virus 1, T-lymphoid, HIV-1 H9IIIB infection of MT-4 human T-lymphoid cells in 10% FBS; mean of at least two independent experiments
Description: Antiviral Assays in Cell Culture (“Spread”)
Acute Infection Assay (“Spread”) data were generated using HIV-1 (H9IIIB strain) infection of MT-4 human T-lymphoid cells in 10% FBS, and according to the methods disclosed by J. P. Vacca et al, “L-735,524: An orally bioavailable human immunodeficiency virus type 1 protease inhibitor,” Proc. Natl. Acad. Sci. USA, Vol. 91, pp. 4096-4100 (April 1994).

HIV = settings: HIV-infected patients, in combination with nucleoside reverse transcriptase inhibitors; cited from earlier work

Row | SMILES | pIC50 (wildtype HIV-1 protease) | pEC50 (HIV-1 (H9IIIB strain)) | effect on HIV viral loads and CD4 cell counts (HIV)
1 | COC(=O)N[C@H](C(=O)Nc1cccc(F)c1CC[C@@H]1CN[C@H](COC(=O)NCC(F)(F)F)CO1)[C@@H](c1ccc(F)cc1)c1cc(F)cc(F)c1 [Example 292, (βS)-3,5-difluoro-β-(4-fluorophenyl)-N-(3-fluoro-2-{2-[(2R,5S)-5-({[(2,2,2-trifluoroethyl)carbamoyl]oxy}methyl)morpholin-2-yl]ethyl}phenyl)-Nα-(methoxy-carbonyl)-L-phenylalaninamide] | 8.44 | 7.80 | 
2 | CCC[C@H](c1ccccc1)[C@H](NC(=O)OC)C(=O)Nc1cccc(F)c1CC[C@@H]1CN[C@H](COC(=O)NCC(F)(F)F)CO1 [Example 293, (βR)-N-(3-fluoro-2-{2-[(2R,5S)-5-({[(2,2,2-trifluoroethyl)carbamoyl]oxy}methyl)morpholin-2-yl]ethyl}phenyl)-Nα-(methoxycarbonyl)-β-propyl-L-phenylalaninamide] | 7.00 | 7.10 | 
3 | COC(=O)N[C@H](C(=O)Nc1cccc(F)c1CC[C@@H]1CN[C@H](COC(=O)NCC(F)(F)F)CO1)[C@H](c1ccccc1)c1ccc(F)c(F)c1 [Example 294, (βR)-β-(3,4-difluorophenyl)-N-(3-fluoro-2-{2-[(2R,5S)-5-({[(2,2,2-trifluoroethyl)carbamoyl]oxy}methyl)morpholin-2-yl]ethyl}phenyl)-Nα-(methoxycarbonyl)-L-phenylalaninamide] | 8.42 | 7.85 | 
4 | COC(=O)N[C@H](C(=O)Nc1cccc(F)c1CC[C@@H]1CN[C@H](COC(=O)NCC(F)(F)F)CO1)[C@H](c1ccc(F)cc1)c1ccc(F)c(F)c1 [Example 295, (βR)-β-(3,4-difluorophenyl)-4-fluoro-N-(3-fluoro-2-{2-[(2R,5S)-5-({[(2,2,2-trifluoroethyl)carbamoyl]oxy}methyl)morpholin-2-yl]ethyl}phenyl)-Nα-(methoxy-carbonyl)-L-phenylalaninamide] | 8.60 | 7.89 | 
5 | COC(=O)N[C@H](C(=O)Nc1cccc(F)c1CC[C@@H]1CN[C@H](COC(=O)NCC(F)(F)F)CO1)[C@H](c1ccccc1)c1ccc(OC)cc1 [Example 296, (βR)-N-(3-fluoro-2-{2-[(2R,5S)-5-({[(2,2,2-trifluoroethyl)carbamoyl]oxy}methyl)morpholin-2-yl]ethyl}phenyl)-Nα-(methoxy-carbonyl)-O-methyl-β-phenyl-L-tyrosinamide] | 7.64 | 6.92 | 
6 | COC(=O)N[C@H](C(=O)Nc1cncc(F)c1CC[C@@H]1CN[C@H](COC(=O)NCC(F)(F)F)CO1)[C@H](c1ccc(F)cc1)c1ccc(F)c(F)c1 [Example 297, (βR)-3,4-difluoro-β-(4-fluorophenyl)-N-(5-fluoro-4-{2-[(2R,5S)-5-({[(2,2,2-trifluoroethyl)carbamoyl]oxy}methyl)morpholin-2-yl]ethyl}pyridin-3-yl)-Nα-(methoxycarbonyl)-L-phenylalaninamide] | 9.00 | 7.82 | 
7 | COC(=O)N[C@H](C(=O)Nc1cncc(F)c1CC[C@@H]1CN[C@H](COC(=O)NCC(F)(F)F)CO1)[C@H](c1ccc(F)cc1)c1ccc(Br)cc1 [Example 298, (βR)-β-(4-bromophenyl)-4-fluoro-N-(5-fluoro-4-{2-[(2R,5S)-5-({[(2,2,2-trifluoroethyl)carbamoyl]oxy}methyl)morpholin-2-yl]ethyl}pyridin-3-yl)-Nα-(methoxycarbonyl)-L-phenylalaninamide] | 9.52 | 7.85 | 
8 | COC(=O)N[C@H](C(=O)Nc1cccc(F)c1CC[C@@H]1CN[C@H](COC(=O)NCC(F)(F)F)CO1)[C@H](c1ccc(F)cc1)c1ccc(OC)cc1 [Example 299, (βS)-β-(4-fluorophenyl)-N-(3-fluoro-2-{2-[(2R, 5S)-5-({[(2,2,2-trifluoroethyl)carbamoyl]oxy}methyl)morpholin-2-yl]ethyl}phenyl)-Nα-(methoxy-carbonyl)-O-methyl-L-tyrosinamide] | 7.82 | 7.49 | 
9 | COC(=O)N[C@H](C(=O)Nc1cncc(F)c1CC[C@@H]1CN[C@H](COC(=O)NCC(F)(F)F)CO1)[C@@H](c1ccc(F)cc1)c1cc(F)ccc1F [Example 300, (βS)-2,5-difluoro-β-(4-fluorophenyl)-N-(5-fluoro-4-{2-[(2R,5S)-5-({[(2,2,2-trifluoroethyl)carbamoyl]oxy}methyl)morpholin-2-yl]ethyl}pyridin-3-yl)-Nα-(methoxycarbonyl)-L-phenylalaninamide] | 8.80 | 7.74 | 
10 | COC(=O)N[C@H](C(=O)Nc1cccc(F)c1CC[C@@H]1CN[C@H](COC(=O)NCC(F)(F)F)CO1)[C@@H](c1ccc(F)cc1)c1cccc(OC(F)(F)F)c1 [Example 303, (βS)-4-fluoro-N-(3-fluoro-2-{2-[(2R, 5S)-5-({[(2,2,2-trifluoroethyl)carbamoyl]oxy}methyl)morpholin-2-yl]ethyl}phenyl)-Nα-(methoxy-carbonyl)-β-[3-(trifluoromethoxy)phenyl]-L-phenylalaninamide] | 8.28 | 7.62 | 
11 | COC(=O)N[C@H](C(=O)Nc1cccc(F)c1CC[C@@H]1CN[C@H](COC(=O)NCC(F)(F)F)CO1)[C@H](c1ccccc1)c1cccc(OC)c1 [Example 305, (βR)-N-(3-fluoro-2-{2-[(2R,5S)-5-({[(2,2,2-trifluoroethyl)carbamoyl]oxy}methyl)morpholin-2-yl]ethyl}phenyl)-3-methoxy-Nα-(methoxy-carbonyl)-β-phenyl-L-phenylalaninamide] | 6.64 | 7.38 | 
12 | COC(=O)N[C@H](C(=O)Nc1cccc(F)c1CC[C@@H]1CN[C@H](COC(=O)NCC(F)(F)F)CO1)C(c1cccc(F)c1)c1cccc(F)c1 [Example 307, 3-fluoro-β-(3-fluorophenyl)-N-(3-fluoro-2-{2-[(2R,5S)-5-({[(2,2,2-trifluoroethyl)carbamoyl]oxy}methyl)morpholin-2-yl]ethyl}phenyl)-Nα-(methoxy-carbonyl)-L-phenylalaninamide] | 8.52 | 7.85 | 
13 | CC(C)(C)NC(=O)[C@@H]1CN(Cc2cccnc2)CCN1C[C@@H](O)C[C@@H](Cc1ccccc1)C(=O)N[C@H]1c2ccccc2C[C@H]1O [Indinavir, indinavir] |  |  | highly effective in reducing HIV viral loads and increasing CD4 cell counts
